The text below walks through data of patent US9434741B2, “Thieno[2,3-d]pyrimidine derivatives, preparation method and use thereof” (FUJIAN INSTITUTE OF RESEARCH ON THE STRUCTURE OF MATTER, …, priority 2012, dated 2016).

The subject of assay [1] is human lung cancer cell lines (A549). Put plainly: SRB screening of inhibitory activity against human lung cancer cell lines (A549). The assay is classed as cell-based. Particulars: A549 cells, compound concentration 1×10^−4 M, SRB method; for inhibition at 100 µM: Homo sapiens, 72 h, read-out: Inhibitory ratio (%). From the text:
(§1) The inhibitory activity against colon cancer cell lines (HCT-116) and human lung cancer cell lines (A549) were screened with an SRB method. The procedure of screening was described in the reference (Li M. H., Miao Z. H., Tan W. F. et al. Clin. Cancer Res. 2004, 10(24): 8266-8274).
(§2) Detailed experimental procedure is as follows:
(§3) (1) According to the growth rate of tumor cells, colon cancer cell lines (HCT-116) in logarithmic growth phase were inoculated in 96-well culture plates and allowed to adhere to the wall for 24 h. The medicants with a concentration of 1×10^−4 M were added. Three replicate wells were set for the concentration, and saline control and non-apoptotic well of the corresponding concentration were set. The tumor/cancer cells were incubated for 72 hours at 37 in 5% CO2; (2) the plates were taken out, and the cells were fixed in each well with 10% cold […] (TCA) solution at 4 for 1 hour; (3) the fixation fluid was removed, and the plates were rinsed 5 times with distilled water and naturally dried in air; (4) SRB solution prepared from glacial acetic acid (1%) was added to stain at room temperature for 15 min; (5) the supernatant was removed, and the residue was washed 5 times with 1% acetic acid and air-dried; (6) finally Tris solution was added and the plates were shaken on a plate shaker for 5 min. Absorbance value at 560 nm (A560) was determined by using a wavelength-tunable microplate reader. Enzyme inhibitory ratio was calculated with the following formula: […]
(§4) The activities of the compounds represented by formula (I) or salts thereof of inhibiting colon cancer cell lines (HCT-116) and human lung cancer cell lines A549 at a concentration of 1×10^−4 M were determined.
For orientation: Sulforhodamine B stains cellular protein and so reports cell mass.

Assay [2] relates to colon cancer cell lines (HCT-116). Put plainly: SRB screening of inhibitory activity against colon cancer cell lines (HCT-116). The assay is classed as cell-based. Particulars: HCT-116 cells, compound concentration 1×10^−4 M, 72 hours incubation, SRB method, A560; for inhibition at 100 µM: Homo sapiens, read-out: Inhibitory ratio (%).
Source text: as §1, §2, §3, §4

For `Cc1csc2ncnc(OCc3cc(-c4ccccc4)no3)c12` [Compound S-1, 5-methyl-4-((3-phenyl-isoxazol-5-yl)-methoxy-)-thieno[2,3-d]pyrimidine], in assay [1], the inhibition at 100 µM came out at 85%.

In the case of `Cc1ccc(-c2cc(COc3ncnc4scc(C)c34)on2)cc1` [Compound S-2], the inhibition at 100 µM in assay [1] was determined as 80%.

As to `COc1ccc(-c2cc(COc3ncnc4scc(C)c34)on2)cc1` [Compound S-3], in assay [2], the “Inhibitory ratio (%)” value is on record as 70.0% and the inhibition at 100 µM turned out to be 70%. For the same compound, the inhibition at 100 µM in assay [1] came out at 86.4%.

`Cc1csc2ncnc(OCc3cc(-c4ccc(Cl)cc4)no3)c12` [Compound S-5]: the inhibition at 100 µM in assay [1] stood at 80.8%.

Turning to `Cc1csc2ncnc(OCc3cc(-c4ccccc4Cl)no3)c12` [Compound S-6], the inhibition at 100 µM in assay [1] came to 75.6%.

As to `Cc1csc2ncnc(OCc3cc(-c4ccc(Br)cc4)no3)c12` [Compound S-8], the inhibition at 100 µM in assay [1] stood at 85.9%.

On to `CCc1cc2c(OCc3cc(-c4ccc(OC)cc4)no3)ncnc2s1` [Compound S-83], for which the figures for the inhibition at 100 µM in assay [2] and in assay [1] were 69.6% and 89.4%, respectively.

Turning to `CCc1cc2c(OCc3cc(-c4ccc(Cl)cc4Cl)no3)ncnc2s1` [Compound S-87], the inhibition at 100 µM in assay [2] was 72.7%.

In the case of `CCc1cc2c(OCc3cc(-c4ccc(Br)cc4)no3)ncnc2s1` [Compound S-88], the inhibition at 100 µM in assay [2] was 60.9%.

Take `Cc1sc2ncnc(OCc3cc(-c4ccccc4)no3)c2c1C` [Compound S-101]: the inhibition at 100 µM in assay [2] amounted to 68.8%. Further, in assay [1], the “Inhibitory ratio (%)” value was 88.0% and the inhibition at 100 µM was found to be 88%.

As for `Cc1ccc(-c2cc(COc3ncnc4sc(C)c(C)c34)on2)cc1` [Compound S-102], the inhibition at 100 µM in assay [2] was 62.9%.

Take `COc1ccc(-c2cc(COc3ncnc4sc(C)c(C)c34)on2)cc1` [Compound S-103]: in assay [2], the inhibition at 100 µM turned out to be 71.1%.

As for `Cc1sc2ncnc(OCc3cc(-c4ccccc4Cl)no3)c2c1C` [Compound S-106], the inhibition at 100 µM in assay [1] came to 71.6%.

Turning to `Cc1sc2ncnc(OCc3cc(-c4ccc(Cl)cc4Cl)no3)c2c1C` [Compound S-107], in assay [2], the inhibition at 100 µM stood at 72.9%.

As to `c1ccc(-c2cc(COc3ncnc4sc5c(c34)CCCC5)on2)cc1` [Compound S-121], the inhibition at 100 µM in assay [1] is 54.1%.
